Assay results reported in the supplement of paper PMC10307832.

Tests used:
Experiment in all cases: relative viability (nuclei count vs DMSO), 5 days (fraction); higher = more cells survive
Linsitinib + Crizotinib = compound: C[C@]1(O)C[C@@H](c2nc(-c3ccc4ccc(-c5ccccc5)nc4c3)c3c(N)nccn32)C1 [Linsitinib] + C[C@@H](Oc1cc(-c2cnn(C3CCNCC3)c2)cnc1N)c1c(Cl)ccc(F)c1Cl [Crizotinib] (partner 1 µM)
How it was run: (§1)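 Values are medians from duplicate plates. Each reflects relative viability, defined as the nuclei count of treated wells over that of vehicle wells. Lung cancer cell lines in 1536-well plates were pin-tool dosed one day after seeding with one drug alone or with a fixed anchor-drug dose plus five library-drug doses (not always all listed) in √10 steps, then fixed, stained and imaged at 4× after 5 days.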

Ispinesib + Crizotinib = compound: Cc1ccc(C(=O)N(CCCN)[C@@H](c2nc3cc(Cl)ccc3c(=O)n2Cc2ccccc2)C(C)C)cc1 [Ispinesib] + C[C@@H](Oc1cc(-c2cnn(C3CCNCC3)c2)cnc1N)c1c(Cl)ccc(F)c1Cl [Crizotinib] (partner 1 µM)
How it was run: as §1

Ispinesib + Alpelisib = compound: Cc1ccc(C(=O)N(CCCN)[C@@H](c2nc3cc(Cl)ccc3c(=O)n2Cc2ccccc2)C(C)C)cc1 [Ispinesib] + Cc1nc(NC(=O)N2CCC[C@H]2C(N)=O)sc1-c1ccnc(C(C)(C)C(F)(F)F)c1 [Alpelisib] (partner 2 µM)
How it was run: as §1

Ispinesib + Bortezomib = compound: Cc1ccc(C(=O)N(CCCN)[C@@H](c2nc3cc(Cl)ccc3c(=O)n2Cc2ccccc2)C(C)C)cc1 [Ispinesib] + CC(C)C[C@H](NC(=O)[C@H](Cc1ccccc1)NC(=O)c1cnccn1)B(O)O [Bortezomib] (partner 0.002 µM)
How it was run: as §1

Cell Line	relative viability (Linsitinib + Crizotinib; first compound 0.01 µM)	relative viability (Linsitinib + Crizotinib; first compound 0.03162 µM)	relative viability (Linsitinib + Crizotinib; first compound 0.1 µM)	relative viability (Linsitinib + Crizotinib; first compound 0.3162 µM)	relative viability (Linsitinib + Crizotinib; first compound 1 µM)	relative viability (Ispinesib + Crizotinib; first compound 0.001 µM)	relative viability (Ispinesib + Crizotinib; first compound 0.003162 µM)	relative viability (Ispinesib + Crizotinib; first compound 0.01 µM)	relative viability (Ispinesib + Crizotinib; first compound 0.03162 µM)	relative viability (Ispinesib + Crizotinib; first compound 0.1 µM)	relative viability (Ispinesib + Alpelisib; first compound 0.001 µM)	relative viability (Ispinesib + Alpelisib; first compound 0.003162 µM)	relative viability (Ispinesib + Alpelisib; first compound 0.01 µM)	relative viability (Ispinesib + Alpelisib; first compound 0.03162 µM)	relative viability (Ispinesib + Alpelisib; first compound 0.1 µM)	relative viability (Ispinesib + Bortezomib; first compound 0.001 µM)	relative viability (Ispinesib + Bortezomib; first compound 0.003162 µM)	relative viability (Ispinesib + Bortezomib; first compound 0.01 µM)	relative viability (Ispinesib + Bortezomib; first compound 0.03162 µM)	relative viability (Ispinesib + Bortezomib; first compound 0.1 µM)
NCI-H2009	0.988	1.04	1.06	0.975	1.04	1.04	1.01	0.999	0.589	0.288	1.16	1.18	1.33	1.04	0.463	1	0.986	0.854	0.189	0.261
LC-2-ad	0.479	0.566	0.451	0.357	0.311	0.447	0.317	0.439	0.368	0.283	0.932	0.94	1.06	0.697	0.268	1.01	1.07	1.07	0.917	0.119
NCI-H1437	0.897	0.75	0.993	0.853	0.972	0.993	0.971	1.11	0.902	0.195	1.11	1.14	0.972	0.893	0.272	0.451	0.608	0.592	0.487	0.134
NCI-H3122	0.261	0.281	0.282	0.323	0.323	0.28	0.27	0.274	0.314	0.202	0.783	0.86	0.778	0.897	0.223	1.07	0.945	1.09	1.06	0.202
NCI-H1563	0.886	0.847	0.852	0.818	0.955	0.826	0.776	0.782	0.949	0.781	0.972	0.949	0.944	0.838	0.705	0.903	0.815	0.929	0.687	0.669
NCI-H727	0.839	0.905	0.743	0.727	0.601		0.943	1.02	0.632	0.408		0.565	0.545	0.486	0.404		1.71	1.21	0.762	0.337
Calu-6	0.79	0.701	0.837	0.717	0.708	0.992	0.618	0.527	0.169	0.265	1.04	0.901	0.551	0.134	0.145	0.9	0.725	0.24	0.137	0.202
NCI-H1734	0.592	0.723	0.719	0.694	0.462	0.662	0.77	0.893	0.648	0.483	0.659	0.743	0.763	0.721	0.517	0.943	0.954	0.997	0.962	0.328
HCC-15	0.833	0.724	0.837	0.52	0.696	0.892	0.976	0.97	0.489	0.15	0.92	0.955	1.06	0.83	0.358	1.14	1.19	1.24	0.563	0.226
NCI-H2405	0.878	0.772	0.794	0.67	0.769	0.846	0.859	0.919	0.835	0.406	0.922	0.647	0.763	0.717	0.364	1.02	1.05	1.11	0.924	0.81
NCI-H1993	0.867	0.852	0.866	0.969	0.636	0.837	0.914	0.874	0.891	0.661	0.697	0.637	0.709	0.663	0.596	1.23	1.14	1.1	1.03	0.585
NCI-H460	0.799	0.837	0.961	0.745	0.714	1.11	1.07		0.38	0.083	0.584	0.45	0.667	0.0767	0.0288	1.53	1.48		0.793	0.0396
NCI-H1651	0.874	0.93	0.803	0.735	0.862	0.855	0.936	0.99	0.959	0.735	0.957	0.99	1.26	1.05	0.206	0.934	1.16	0.926	0.796	0.712
NCI-H1975	0.949	0.993	0.918	0.899	0.727	1.09	1.02	1.08	0.491	0.205	0.738	0.672	0.666	0.332	0.226	0.471	0.437	0.331	0.19	0.261
NCI-H2126	0.972	1.06	0.988	0.841	0.903	1.03	1.05	1.09	1.07	0.923	0.765	0.811	0.901	0.742	0.813	1.1	1.14	1.24	1.14	0.773
201T	1.02	1.03	1.07	1.11	1.01	1.05	1.09	1.14	1.04	1.01	1.07	1.01	1.06	0.996	0.955	1.13	1.16	0.947	1.02	0.669
HCC-78	0.298	0.356	0.278	0.338	0.265	0.348	0.341	0.438		0.272	0.358	0.393	0.38		0.268	0.504	0.531	0.459	0.308	0.394
SK-LU-1	0.805	0.752	0.859		0.993	1.05	0.932	0.968	0.776	0.439	1.08	1.01	1.15	0.773	0.383	1.32	1.39	1.48	0.585	0.461
H3255	0.84	0.817	0.95	0.773	0.813	1.09	0.821	0.92	0.58	0.327	0.677	0.8	0.736	0.492	0.33	1	0.991	0.814	0.38	0.374
LOU-NH91	0.756	0.763	0.743	0.735	0.644	0.764	0.744	0.706	0.671	0.536	0.724	0.705	0.751	0.607	0.553	0.507	0.507	0.575	0.444	0.395
NCI-H1666	0.949	1.13	0.907	0.594	0.552	0.952	1.12	0.948	0.794	0.293	1.07	0.936	0.988	0.567	0.388	0.704	0.761	0.64	0.305	0.321
NCI-H2023	0.57	0.474	0.753	0.374	0.359	0.616	0.657	0.598	0.457	0.13	0.65	0.606	0.659	0.5	0.18	1	1.02	0.713	0.144	0.147
COR-L 105	0.938	0.7	0.845	0.631	0.471	0.721	0.759	0.47	0.263	0.411	1.15	0.952	0.89	0.562	0.35	0.836	0.664	0.325	0.311	0.303
NCI-H838	0.787	0.704	0.826	0.673	0.64	0.955	0.901	1.22	0.725	0.285	1.17	1.06	1.1	1.04	0.426	0.745	0.9	0.991	0.674	0.23
SW 1573	0.801	0.921	0.796	0.817	0.577	0.948	0.66	1.03	0.724	0.296	1	0.816	1.07	0.893	0.255	1.07	1.05	1.42	0.929	0.304
